Calls of active or inactive are those of the source. No cut-off for these calls is given here.
Legend:
[1] = molecular target: T1, Protein cereblon/CREB-binding protein (Homo sapiens) (UniProt Q92793+Q96SW2); experiment: PROTAC activity at CRBN/HiBiT-tagged CBP in human HAP1 cells assessed as total cumulative degradation by measuring AUC at 100 nM measured over 24 hrs by luminescence based analysis; type: cell-based
[2] = molecular target: T2, Protein cereblon/Histone acetyltransferase p300 (Homo sapiens) (UniProt Q09472+Q96SW2); experiment: Binding affinity to recombinant CRBN/p300 bromodomain (unknown origin) assessed as ternary complex formation at 10 to 100 nM by Alphascreen-based proximity assay; type: protein assay; conditions: dose 10-100 nM
[3] = molecular target: T1, Protein cereblon/CREB-binding protein (Homo sapiens); experiment: PROTAC activity at CRBN/HiBiT-tagged CBP in human HAP1 cells assessed as induction of CBP degradation by measuring maximal efficacy at 10 nM measured over 24 hrs by luminescence based analysis relative to control; type: cell-based
[4] = molecular target: T1, Protein cereblon/CREB-binding protein (Homo sapiens); experiment: PROTAC activity at CRBN/HiBiT-tagged CBP in human HAP1 cells assessed as induction of CBP degradation by measuring maximal efficacy at 1000 nM measured over 24 hrs by luminescence based analysis relative to control; type: cell-based
[5] = molecular target: T1, Protein cereblon/CREB-binding protein (Homo sapiens); experiment: PROTAC activity at CRBN/HiBiT-tagged CBP in human HAP1 cells assessed as induction of CBP degradation by measuring degradation rate at 10 nM measured over 24 hrs by luminescence based analysis; type: cell-based
[6] = molecular target: Protein cereblon/Bromodomain-containing protein 4 (Homo sapiens) (UniProt O60885+Q96SW2); experiment: PROTAC activity at CRBN/HiBiT-tagged BRD4 in human HAP1 cells assessed as induction of BRD4 degradation measured over 24 hrs by luminescence based analysis; type: cell-based
Protein cereblon/Bromodomain-containing protein 4 (Homo sapiens), sequence (Q96SW2 whole entry, looked up, other chains not shown): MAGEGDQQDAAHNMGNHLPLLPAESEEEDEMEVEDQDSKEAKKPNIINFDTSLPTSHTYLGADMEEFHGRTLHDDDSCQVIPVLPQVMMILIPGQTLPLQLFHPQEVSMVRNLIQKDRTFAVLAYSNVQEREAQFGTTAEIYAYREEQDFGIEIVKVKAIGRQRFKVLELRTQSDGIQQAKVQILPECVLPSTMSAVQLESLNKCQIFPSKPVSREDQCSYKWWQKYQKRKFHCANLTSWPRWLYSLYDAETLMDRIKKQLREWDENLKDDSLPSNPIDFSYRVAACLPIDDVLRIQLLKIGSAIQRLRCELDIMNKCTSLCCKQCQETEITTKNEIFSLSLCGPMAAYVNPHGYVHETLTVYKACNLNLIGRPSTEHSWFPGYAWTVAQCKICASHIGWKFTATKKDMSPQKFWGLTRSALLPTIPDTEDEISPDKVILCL

[7] = molecular target: T2, Protein cereblon/Histone acetyltransferase p300 (Homo sapiens); experiment: PROTAC activity at CRBN/HiBiT-tagged p300 in human HAP1 cells assessed as induction of p300 degradation by measuring maximal efficacy at 10 nM measured over 24 hrs by luminescence based analysis relative to control; type: cell-based
[8] = molecular target: T2, Protein cereblon/Histone acetyltransferase p300 (Homo sapiens); experiment: PROTAC activity at CRBN/HiBiT-tagged p300 in human HAP1 cells assessed as induction of p300 degradation by measuring maximal efficacy at 100 nM measured over 24 hrs by luminescence based analysis relative to control; type: cell-based
[9] = molecular target: T2, Protein cereblon/Histone acetyltransferase p300 (Homo sapiens); experiment: PROTAC activity at CRBN/HiBiT-tagged p300 in human HAP1 cells assessed as total cumulative degradation by measuring AUC at 0.01 nM measured over 24 hrs by luminescence based analysis; type: cell-based
[10] = molecular target: T1, Protein cereblon/CREB-binding protein (Homo sapiens); experiment: PROTAC activity at CRBN/HiBiT-tagged CBP in human HAP1 cells assessed as induction of CBP degradation by measuring maximal efficacy at 100 nM measured over 24 hrs by luminescence based analysis relative to control; type: cell-based
[11] = molecular target: T2, Protein cereblon/Histone acetyltransferase p300 (Homo sapiens); experiment: PROTAC activity at CRBN/HiBiT-tagged p300 in human HAP1 cells assessed as total cumulative degradation by measuring AUC at 0.1 nM measured over 24 hrs by luminescence based analysis; type: cell-based
[12] = molecular target: T2, Protein cereblon/Histone acetyltransferase p300 (Homo sapiens); experiment: PROTAC activity at CRBN/HiBiT-tagged p300 in human HAP1 cells assessed as total cumulative degradation by measuring AUC at 10 nM measured over 24 hrs by luminescence based analysis; type: cell-based
[13] = molecular target: T1, Protein cereblon/CREB-binding protein (Homo sapiens); experiment: PROTAC activity at CRBN/HiBiT-tagged CBP in human HAP1 cells assessed as total cumulative degradation by measuring AUC at 0.1 nM measured over 24 hrs by luminescence based analysis; type: cell-based
[14] = molecular target: T1, Protein cereblon/CREB-binding protein (Homo sapiens); experiment: PROTAC activity at CRBN/HiBiT-tagged CBP in human HAP1 cells assessed as induction of CBP degradation by measuring degradation rate at 100 nM measured over 24 hrs by luminescence based analysis; type: cell-based
[15] = molecular target: T1, Protein cereblon/CREB-binding protein (Homo sapiens); experiment: PROTAC activity at CRBN/HiBiT-tagged CBP in human HAP1 cells assessed as total cumulative degradation by measuring AUC at 0.01 nM measured over 24 hrs by luminescence based analysis; type: cell-based
[16] = molecular target: T2, Protein cereblon/Histone acetyltransferase p300 (Homo sapiens); experiment: PROTAC activity at CRBN/HiBiT-tagged p300 in human HAP1 cells assessed as induction of p300 degradation by measuring degradation rate at 10 nM measured over 24 hrs by luminescence based analysis; type: cell-based
[17] = molecular target: T1, Protein cereblon/CREB-binding protein (Homo sapiens); experiment: PROTAC activity at CRBN/HiBiT-tagged CBP in human HAP1 cells assessed as induction of CBP degradation by measuring degradation rate at 1000 nM measured over 24 hrs by luminescence based analysis; type: cell-based
[18] = molecular target: T1, Protein cereblon/CREB-binding protein (Homo sapiens); experiment: PROTAC activity at CRBN/HiBiT-tagged CBP in human HAP1 cells assessed as total cumulative degradation by measuring AUC at 1 nM measured over 24 hrs by luminescence based analysis; type: cell-based
[19] = molecular target: T1, Protein cereblon/CREB-binding protein (Homo sapiens); experiment: Binding affinity to recombinant CRBN/CBP bromodomain (unknown origin) assessed as ternary complex formation at 10 to 100 nM by Alphascreen-based proximity assay; type: protein assay; conditions: dose 10-100 nM
[20] = molecular target: T2, Protein cereblon/Histone acetyltransferase p300 (Homo sapiens); experiment: PROTAC activity at CRBN/HiBiT-tagged p300 in human HAP1 cells assessed as induction of p300 degradation by measuring degradation rate at 100 nM measured over 24 hrs by luminescence based analysis; type: cell-based
[21] = molecular target: T2, Protein cereblon/Histone acetyltransferase p300 (Homo sapiens); experiment: PROTAC activity at CRBN/HiBiT-tagged p300 in human HAP1 cells assessed as induction of p300 degradation by measuring maximal efficacy at 1000 nM measured over 24 hrs by luminescence based analysis relative to control; type: cell-based
[22] = molecular target: T1, Protein cereblon/CREB-binding protein (Homo sapiens); experiment: PROTAC activity at CRBN/HiBiT-tagged CBP in human HAP1 cells assessed as total cumulative degradation by measuring AUC at 10 nM measured over 24 hrs by luminescence based analysis; type: cell-based
[23] = molecular target: T2, Protein cereblon/Histone acetyltransferase p300 (Homo sapiens); experiment: PROTAC activity at CRBN/HiBiT-tagged p300 in human HAP1 cells assessed as induction of p300 degradation by measuring degradation rate at 1000 nM measured over 24 hrs by luminescence based analysis; type: cell-based
[24] = molecular target: T2, Protein cereblon/Histone acetyltransferase p300 (Homo sapiens); experiment: PROTAC activity at CRBN/HiBiT-tagged p300 in human HAP1 cells assessed as total cumulative degradation by measuring AUC at 1000 nM measured over 24 hrs by luminescence based analysis; type: cell-based
[25] = molecular target: T2, Protein cereblon/Histone acetyltransferase p300 (Homo sapiens); experiment: PROTAC activity at CRBN/HiBiT-tagged p300 in human HAP1 cells assessed as total cumulative degradation by measuring AUC at 100 nM measured over 24 hrs by luminescence based analysis; type: cell-based
[26] = molecular target: T1, Protein cereblon/CREB-binding protein (Homo sapiens); experiment: PROTAC activity at CRBN/HiBiT-tagged CBP in human HAP1 cells assessed as total cumulative degradation by measuring AUC at 1000 nM measured over 24 hrs by luminescence based analysis; type: cell-based
[27] = molecular target: T2, Protein cereblon/Histone acetyltransferase p300 (Homo sapiens); experiment: PROTAC activity at CRBN/HiBiT-tagged p300 in human HAP1 cells assessed as total cumulative degradation by measuring AUC at 1 nM measured over 24 hrs by luminescence based analysis; type: cell-based
[28] = molecular target: T1, Protein cereblon/CREB-binding protein (Homo sapiens); experiment: PROTAC activity at CRBN/HiBiT-tagged CBP in human HAP1 cells assessed as induction of CBP degradation by measuring maximal efficacy at 1 nM measured over 24 hrs by luminescence based analysis relative to control; type: cell-based
[29] = molecular target: T1, Protein cereblon/CREB-binding protein (Homo sapiens); experiment: PROTAC activity at CRBN/HiBiT-tagged CBP in human HAP1 cells assessed as induction of CBP degradation by measuring maximal efficacy at 0.1 nM measured over 24 hrs by luminescence based analysis relative to control; type: cell-based
[30] = molecular target: T2, Protein cereblon/Histone acetyltransferase p300 (Homo sapiens); experiment: PROTAC activity at CRBN/HiBiT-tagged p300 in human HAP1 cells assessed as induction of p300 degradation by measuring maximal efficacy at 1 nM measured over 24 hrs by luminescence based analysis relative to control; type: cell-based
[31] = molecular target: T1, Protein cereblon/CREB-binding protein (Homo sapiens); experiment: PROTAC activity at CRBN/HiBiT-tagged CBP in human HAP1 cells assessed as induction of CBP degradation by measuring degradation rate at 1 nM measured over 24 hrs by luminescence based analysis; type: cell-based
[32] = molecular target: T2, Protein cereblon/Histone acetyltransferase p300 (Homo sapiens); experiment: PROTAC activity at CRBN/HiBiT-tagged p300 in human HAP1 cells assessed as induction of p300 degradation by measuring degradation rate at 1 nM measured over 24 hrs by luminescence based analysis; type: cell-based

T1 sequence (Q92793 2-2442 limits assumed): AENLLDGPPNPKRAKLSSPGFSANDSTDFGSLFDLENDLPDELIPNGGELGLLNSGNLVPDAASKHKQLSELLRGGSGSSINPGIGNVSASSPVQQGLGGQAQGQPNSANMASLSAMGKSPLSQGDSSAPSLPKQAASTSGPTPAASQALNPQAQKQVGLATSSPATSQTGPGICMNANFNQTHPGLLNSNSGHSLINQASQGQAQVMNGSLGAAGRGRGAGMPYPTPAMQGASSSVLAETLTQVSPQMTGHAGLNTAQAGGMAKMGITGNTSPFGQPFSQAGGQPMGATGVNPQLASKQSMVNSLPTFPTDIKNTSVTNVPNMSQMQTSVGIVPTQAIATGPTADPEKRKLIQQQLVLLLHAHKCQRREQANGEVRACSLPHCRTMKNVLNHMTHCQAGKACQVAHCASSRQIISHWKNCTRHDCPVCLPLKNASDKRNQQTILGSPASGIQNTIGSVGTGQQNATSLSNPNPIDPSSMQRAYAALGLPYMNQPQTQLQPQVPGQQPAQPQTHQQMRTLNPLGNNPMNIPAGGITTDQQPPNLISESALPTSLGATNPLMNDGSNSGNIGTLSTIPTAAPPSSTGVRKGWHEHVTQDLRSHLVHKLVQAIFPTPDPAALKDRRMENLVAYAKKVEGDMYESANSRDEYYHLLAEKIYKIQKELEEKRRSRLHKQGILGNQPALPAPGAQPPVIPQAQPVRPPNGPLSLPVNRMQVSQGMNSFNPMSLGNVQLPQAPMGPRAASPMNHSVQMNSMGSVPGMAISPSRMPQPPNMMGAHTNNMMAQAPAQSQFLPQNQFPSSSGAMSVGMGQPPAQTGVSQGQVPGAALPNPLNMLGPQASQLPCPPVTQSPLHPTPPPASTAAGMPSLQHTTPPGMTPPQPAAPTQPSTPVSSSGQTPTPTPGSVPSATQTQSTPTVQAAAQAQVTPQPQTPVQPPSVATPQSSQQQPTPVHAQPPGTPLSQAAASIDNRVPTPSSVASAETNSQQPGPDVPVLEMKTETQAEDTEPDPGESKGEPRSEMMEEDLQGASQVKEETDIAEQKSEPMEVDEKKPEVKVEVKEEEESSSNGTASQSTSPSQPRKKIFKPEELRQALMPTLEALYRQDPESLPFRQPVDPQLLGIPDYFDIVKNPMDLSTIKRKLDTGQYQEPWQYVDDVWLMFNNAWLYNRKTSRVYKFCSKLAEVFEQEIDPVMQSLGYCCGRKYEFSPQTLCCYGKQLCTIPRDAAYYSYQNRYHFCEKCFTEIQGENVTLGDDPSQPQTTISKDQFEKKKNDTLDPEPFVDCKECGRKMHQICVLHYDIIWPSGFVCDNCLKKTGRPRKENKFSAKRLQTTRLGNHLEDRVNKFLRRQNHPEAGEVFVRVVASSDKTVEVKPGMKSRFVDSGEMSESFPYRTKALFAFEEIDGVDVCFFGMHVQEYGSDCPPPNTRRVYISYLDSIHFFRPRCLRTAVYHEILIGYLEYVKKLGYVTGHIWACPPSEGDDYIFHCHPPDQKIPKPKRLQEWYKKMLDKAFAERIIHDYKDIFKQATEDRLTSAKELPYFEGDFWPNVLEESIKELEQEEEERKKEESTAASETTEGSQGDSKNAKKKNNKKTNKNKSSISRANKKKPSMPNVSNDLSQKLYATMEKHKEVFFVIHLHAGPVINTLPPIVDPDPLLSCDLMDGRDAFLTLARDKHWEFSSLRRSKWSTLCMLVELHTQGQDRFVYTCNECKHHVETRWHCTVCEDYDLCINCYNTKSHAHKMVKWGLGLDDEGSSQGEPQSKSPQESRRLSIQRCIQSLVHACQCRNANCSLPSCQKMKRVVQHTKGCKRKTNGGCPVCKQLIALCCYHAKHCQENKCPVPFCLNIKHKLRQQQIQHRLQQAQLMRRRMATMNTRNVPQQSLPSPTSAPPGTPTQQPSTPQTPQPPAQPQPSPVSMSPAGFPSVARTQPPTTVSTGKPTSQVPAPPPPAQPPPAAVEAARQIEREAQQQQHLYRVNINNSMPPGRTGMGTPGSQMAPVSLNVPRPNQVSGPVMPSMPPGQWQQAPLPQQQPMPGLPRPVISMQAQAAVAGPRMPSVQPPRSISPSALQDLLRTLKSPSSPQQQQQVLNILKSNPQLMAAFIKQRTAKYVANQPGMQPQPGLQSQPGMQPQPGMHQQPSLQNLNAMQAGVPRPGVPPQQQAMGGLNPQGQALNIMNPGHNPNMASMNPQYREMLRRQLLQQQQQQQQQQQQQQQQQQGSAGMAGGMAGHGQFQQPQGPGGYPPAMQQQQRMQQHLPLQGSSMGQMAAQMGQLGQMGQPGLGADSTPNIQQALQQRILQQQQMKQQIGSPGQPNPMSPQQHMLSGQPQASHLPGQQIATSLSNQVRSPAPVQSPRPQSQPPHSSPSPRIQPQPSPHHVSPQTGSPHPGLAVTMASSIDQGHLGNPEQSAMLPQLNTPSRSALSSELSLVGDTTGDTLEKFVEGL
T1 sequence (Q96SW2 whole entry partner): as the sequence (Q96SW2 whole entry, looked up, other chains not shown) above

Row | AUC [1] | Activity [2] | Emax [3] | Emax [4] | Activity [6] | AUC [9] | AUC [11] | AUC [12] | AUC [13] | AUC [15] | Activity [17] | AUC [18] | Activity [19] | Emax [21] | AUC [22] | Activity [23] | AUC [24] | AUC [25] | AUC [26] | AUC [27] | Compound | other results
1 | 18 | Active | 22% | 42% | inactive | 28 | 26.8 | 21.3 | 23.4 | 22.4 | 0.12 h⁻¹ | 23.3 | Active | 55% | 22.2 | 0.11 h⁻¹ | 15.8 | 16.8 | 17.8 | 25.8 | CNC(=O)N1CCc2c(c(N3CCCc4cc(-c5cnn(CC(=O)NCCOCCOCCOCCOCCNc6ccc7c(c6)C(=O)N(C6CCC(=O)NC6=O)C7=O)c5)c(C(F)F)cc43)nn2C2CCOCC2)C1 (stereo not drawn) | Activity [5]: 9.7 10^-3/hr; Emax [7]: 61%; Emax [8]: 51%; Emax [10]: 42%; Activity [14]: 0.11 h⁻¹; Activity [16]: 0.03 h⁻¹; Activity [20]: 0.11 h⁻¹
2 | 24.6 | Active |  |  | inactive | 27.2 | 27.3 | 26.9 | 24.4 | 24.1 |  | 24.7 | Active | 26% | 25.1 | 0.009 h⁻¹ | 22.1 | 25.5 | 24.2 | 27.7 | CNC(=O)N1CCc2c(c(N3CCN(C(=O)NCCOCCOCCOCCOCCNc4ccc5c(c4)C(=O)N(C4CCC(=O)NC4=O)C5=O)c4cc(-c5cnn(C)c5)c(C(F)(F)F)cc43)nn2C2CCOCC2)C1 (stereo not drawn) | 
3 | 4.7 | Active | 72% | 81% | inactive | 27.3 | 26.4 | 9.3 | 24.2 | 26.3 | 0.42 h⁻¹ | 17.8 | Active | 83% | 8.1 | 0.46 h⁻¹ | 6 | 5.2 | 6.6 | 18.6 | CNC(=O)N1CCc2c(c(N3CCCc4cc(-c5cnn(C)c5)c(C(F)F)cc43)nn2C2CCN(C(=O)CCOCCOCCOCCOCCOCCOCCNc3ccc4c(c3)C(=O)N(C3CCC(=O)NC3=O)C4=O)CC2)C1 (stereo not drawn) | Emax [28]: 33%; Emax [29]: 8.6%; Activity [5]: 0.68 h⁻¹; Emax [30]: 32%; Activity [31]: 0.27 h⁻¹; Activity [32]: 0.19 h⁻¹; Emax [7]: 68%; Emax [8]: 83%; Emax [10]: 86%; Activity [14]: 0.79 h⁻¹; Activity [16]: 0.49 h⁻¹; Activity [20]: 0.74 h⁻¹
4 | 23.6 |  |  | 26% | inactive | 27.5 | 27.5 | 27 | 25 | 23.4 | 0.036 h⁻¹ | 23.9 |  | 20% | 24.9 | 0.02 h⁻¹ | 22.3 | 26.2 | 21.4 | 26.9 | CNC(=O)N1CCc2c(c(N3CCN(C(=O)NCCOCCNc4ccc5c(c4)C(=O)N(C4CCC(=O)NC4=O)C5=O)c4cc(-c5cnn(C)c5)c(C(F)(F)F)cc43)nn2C2CCOCC2)C1 (stereo not drawn) | 

From ChEMBL document CHEMBL5579809, “Exploration of bromodomain ligand-linker conjugation sites for efficient CBP/p300 heterobifunctional degrader activity” (Bioorg Med Chem Lett, 2024)
